# Test results as given in paper PMC7246003 (Medicinal Chemistry Research, 2020).
# Like-named read-outs stand apart in the source and are kept apart here.
# Assays:
# [1] = target: T1, IAV RdRp from A/PR/8/34/H1N1 strain (Influenza A virus, UniProt P03428+P03431); settings: inhibiting the transcriptional activity of viral polymerase; ref Pagadala [2019]; cited from earlier work
# [2] = target: T1, IAV RdRp from A/PR/8/34/H1N1 strain; assay type: biochemical, influenza virus A/PR/8/34/H1N1
# T1 sequence (P03428 whole entry, looked up): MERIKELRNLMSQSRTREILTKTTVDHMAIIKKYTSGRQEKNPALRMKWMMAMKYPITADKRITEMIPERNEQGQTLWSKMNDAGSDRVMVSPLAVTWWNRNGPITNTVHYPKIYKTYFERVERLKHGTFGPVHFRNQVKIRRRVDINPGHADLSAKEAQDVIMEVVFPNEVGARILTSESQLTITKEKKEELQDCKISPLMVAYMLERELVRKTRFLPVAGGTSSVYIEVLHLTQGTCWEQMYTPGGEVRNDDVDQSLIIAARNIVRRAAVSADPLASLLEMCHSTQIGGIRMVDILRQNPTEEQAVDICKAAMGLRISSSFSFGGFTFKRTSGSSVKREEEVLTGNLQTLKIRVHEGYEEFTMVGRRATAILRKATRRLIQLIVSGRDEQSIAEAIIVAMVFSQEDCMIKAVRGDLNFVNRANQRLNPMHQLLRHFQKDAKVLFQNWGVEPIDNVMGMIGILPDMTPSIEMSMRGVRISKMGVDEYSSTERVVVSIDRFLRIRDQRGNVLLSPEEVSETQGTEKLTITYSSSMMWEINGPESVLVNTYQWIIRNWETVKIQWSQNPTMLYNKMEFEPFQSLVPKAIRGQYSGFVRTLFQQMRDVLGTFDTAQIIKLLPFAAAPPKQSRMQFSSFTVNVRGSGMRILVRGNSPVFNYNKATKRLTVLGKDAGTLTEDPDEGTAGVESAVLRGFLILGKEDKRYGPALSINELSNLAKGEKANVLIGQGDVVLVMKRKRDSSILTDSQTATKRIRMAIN
# T1 sequence (P03431 whole entry, looked up): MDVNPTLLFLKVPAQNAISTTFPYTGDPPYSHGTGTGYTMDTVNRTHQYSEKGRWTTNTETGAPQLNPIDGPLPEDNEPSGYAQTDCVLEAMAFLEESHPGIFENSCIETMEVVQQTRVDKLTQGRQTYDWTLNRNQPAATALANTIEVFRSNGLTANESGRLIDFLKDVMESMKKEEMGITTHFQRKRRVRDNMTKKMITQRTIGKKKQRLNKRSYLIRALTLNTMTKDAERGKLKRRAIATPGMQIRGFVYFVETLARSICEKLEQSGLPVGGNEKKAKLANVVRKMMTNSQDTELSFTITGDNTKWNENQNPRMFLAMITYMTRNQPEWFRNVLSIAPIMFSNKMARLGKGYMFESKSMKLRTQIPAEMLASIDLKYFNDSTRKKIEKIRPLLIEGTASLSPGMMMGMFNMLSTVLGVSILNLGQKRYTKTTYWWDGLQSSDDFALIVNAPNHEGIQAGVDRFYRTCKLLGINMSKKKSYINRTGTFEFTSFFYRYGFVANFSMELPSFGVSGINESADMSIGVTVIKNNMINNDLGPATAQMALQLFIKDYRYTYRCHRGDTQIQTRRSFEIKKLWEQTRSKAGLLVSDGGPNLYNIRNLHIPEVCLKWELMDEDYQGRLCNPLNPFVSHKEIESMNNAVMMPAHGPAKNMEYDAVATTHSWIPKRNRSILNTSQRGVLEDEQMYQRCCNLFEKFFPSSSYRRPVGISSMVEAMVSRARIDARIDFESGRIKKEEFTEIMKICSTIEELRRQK
molecule,measurement,setting,value
"Nc1nc2c(ncn2[C@@H]2O[C@H](COP(=O)(O)OP(=O)(O)OP(=O)(O)O)[C@@H](O)[C@H]2F)c(=O)[nH]1 [Compound 12, 2′-deoxy-2′-fluoroguanosine 5′-triphosphate]",IC50,[1],1.12 µM
5′-Dimethoxytrityl-2′-tosyl-N2-isobutyryl-guanosine [Compound 7],IC25,[2],0.25 µM
same,IC50,[2],0.68 µM
Cc1cn([C@H]2C[C@H](N=[N+]=[N-])[C@@H](CO[P@](=O)(O)O[P@](=O)(O)OP(=O)(O)O)O2)c(=O)[nH]c1=O [3′-azido-3′-deoxy-thymidine-5′-triphosphate],IC50,[1],1.12 µM
